The values below come from patent US20180148418A1, “AMIDO-SUBSTITUTED CYCLOHEXANE DERIVATIVES” (Bayer Pharma Aktiengesellschaft, priority 2015, published 2018).

The target of assay [1] is T1, TNKS2 (Homo sapiens, UniProt Q9H2K2).
T1 construct: purchased BPS Bioscience, San Diego, USA 80572 (TNKS2 Histone Ribosylation Assay Kit)
T1 sequence (Q9H2K2 1-1166): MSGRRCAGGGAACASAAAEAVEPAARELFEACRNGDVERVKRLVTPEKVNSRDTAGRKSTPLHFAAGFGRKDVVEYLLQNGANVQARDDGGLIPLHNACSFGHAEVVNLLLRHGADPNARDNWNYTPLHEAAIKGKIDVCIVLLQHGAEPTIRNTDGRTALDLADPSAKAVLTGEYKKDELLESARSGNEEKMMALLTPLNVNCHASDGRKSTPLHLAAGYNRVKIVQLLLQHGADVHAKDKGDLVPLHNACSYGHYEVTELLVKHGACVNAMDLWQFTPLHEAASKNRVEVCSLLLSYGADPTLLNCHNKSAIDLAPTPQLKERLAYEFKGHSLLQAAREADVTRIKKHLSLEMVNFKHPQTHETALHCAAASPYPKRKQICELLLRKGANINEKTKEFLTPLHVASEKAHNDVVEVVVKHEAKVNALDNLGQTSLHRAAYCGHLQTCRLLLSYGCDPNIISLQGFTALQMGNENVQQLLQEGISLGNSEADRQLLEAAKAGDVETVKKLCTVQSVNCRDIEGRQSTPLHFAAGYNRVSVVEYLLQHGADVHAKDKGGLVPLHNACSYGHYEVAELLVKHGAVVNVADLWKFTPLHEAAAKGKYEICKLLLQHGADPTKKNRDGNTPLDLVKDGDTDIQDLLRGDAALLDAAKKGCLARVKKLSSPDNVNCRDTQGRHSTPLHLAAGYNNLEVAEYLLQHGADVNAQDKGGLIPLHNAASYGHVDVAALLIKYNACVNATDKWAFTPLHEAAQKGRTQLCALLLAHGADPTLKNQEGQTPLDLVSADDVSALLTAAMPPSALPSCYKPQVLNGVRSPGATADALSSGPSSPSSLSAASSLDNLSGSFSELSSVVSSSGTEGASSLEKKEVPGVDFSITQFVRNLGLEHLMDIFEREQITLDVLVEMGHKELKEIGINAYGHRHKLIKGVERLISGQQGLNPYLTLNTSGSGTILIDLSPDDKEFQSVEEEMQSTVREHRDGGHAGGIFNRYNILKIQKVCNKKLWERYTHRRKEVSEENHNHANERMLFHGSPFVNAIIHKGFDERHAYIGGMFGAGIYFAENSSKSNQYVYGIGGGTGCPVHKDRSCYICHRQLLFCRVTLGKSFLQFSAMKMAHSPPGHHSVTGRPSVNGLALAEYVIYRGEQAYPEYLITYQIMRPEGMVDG
As to the kind of experiment: TNKS2 Assay B (auto-parsylation, [3H]-NAD+ SPA). The conditions noted are these: 6 nM TNKS2, auto-parsylation, over night at room temperature. It counts as biochemical.

Assay [2] concerns HEK293 cells cotransfected with the FOP control vector. As to the kind of experiment: HEK293 FOP assay (control reporter with non-functional TCF elements). In kind it is cell-based. The conditions noted are these: Homo sapiens, 16 hours. The method, boiled down:
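Compound series from 50 μM down to 15 nM, prediluted in DMSO then 50-fold into CAFTY buffer (pH 7.4, 2 mM Ca2+, 0.01% BSA), tested alongside TOP cells on a Geneticin-selected HEK293 FOP line whose TCF elements are replaced by a random sequence; recombinant human Wnt-3a applied at 2500-5 ng/ml.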

Assay [3] concerns wildtype Wnt signaling cascade. Kind of assay: HEK293 TOP assay (Super TopFlash luciferase reporter, Wnt-3a stimulated). It counts as cell-based. The note with it: Homo sapiens, HEK293, 16 h, HEK293 TOP reporter cells, Wnt3a at EC50, 16 hours. Put shortly:
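Compound series (50 μM down to 15 nM, 3.16-fold) diluted from DMSO 50-fold into CAFTY buffer, pH 7.4, 2 mM Ca^2+, 0.01% BSA, applied to Wnt-3a-stimulated HEK293 TopFlash and FOP reporter lines in parallel. Cells seeded 10000/well 24 h before; luciferase signal measured.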
(In general: In a reporter assay the amount or activity of a reporter protein is the signal.)

Each structure is given as a SMILES string. A value given as a limit tells only on which side of the number the result lay.

Consider `CC(C)(O)CNC(=O)c1nc[nH]c1C(=O)N[C@H]1CC[C@H](C(=O)Nc2ccc(F)cc2Cl)CC1` [Example 75, N^5-{trans-4-[(2-chloro-4-fluorophenyl)carbamoyl]cyclohexyl}-N^4-(2-hydroxy-2-methylpropyl)-1H-imidazole-4,5-dicarboxamide], for which the IC50 (commonly the concentration that gives 50% inhibition) in assay [1] is 100 nM; in assay [2], not below 50000 nM; in assay [3], 370 nM.
On the same counts, the results for `CC(C)OCCNC(=O)c1nc[nH]c1C(=O)N[C@H]1CC[C@H](C(=O)Nc2ccc(F)cc2Cl)CC1` [Example 76, N^5-{trans-4-[(2-chloro-4-fluorophenyl)carbamoyl]cyclohexyl}-N^4-(2-isopropoxyethyl)-1H-imidazole-4,5-dicarboxamide] are 78 nM, not below 50000 nM and 230 nM.
The like results for `CC(C)NCCNC(=O)c1nc[nH]c1C(=O)N[C@H]1CC[C@H](C(=O)Nc2ccc(F)cc2Cl)CC1` [Example 77, N^5-{trans-4-[(2-chloro-4-fluorophenyl)carbamoyl]cyclohexyl}-N^4-[2-(isopropylamino)ethyl]-1H-imidazole-4,5-dicarboxamide] were, in that order, 60 nM, not below 50000 nM and 270 nM.
The like results for `O=C(NCC1CCCO1)c1nc[nH]c1C(=O)N[C@H]1CC[C@H](C(=O)Nc2ccc(F)cc2Cl)CC1` (stereo partly drawn) [Example 78, N^5-{trans-4-[(2-chloro-4-fluorophenyl)carbamoyl]cyclohexyl}-N^4-(tetrahydrofuran-2-ylmethyl)-1H-imidazole-4,5-dicarboxamide] were, in that order, 89 nM, 9700 nM and 130 nM.
In the case of `O=C(NC[C@@H]1CCCO1)c1nc[nH]c1C(=O)N[C@H]1CC[C@H](C(=O)Nc2ccc(F)cc2Cl)CC1` [Example 79, N^5-{trans-4-[(2-chloro-4-fluorophenyl)carbamoyl]cyclohexyl}-N^4-[(2S)-tetrahydrofuran-2-ylmethyl]-1H-imidazole-4,5-dicarboxamide], the IC50 in assay [1] stood at 100 nM; in assay [2], 43000 nM; in assay [3] it was 140 nM.
The like results for `O=C(NC[C@H]1CCCO1)c1nc[nH]c1C(=O)N[C@H]1CC[C@H](C(=O)Nc2ccc(F)cc2Cl)CC1` [Example 80, N^5-{trans-4-[(2-chloro-4-fluorophenyl)carbamoyl]cyclohexyl}-N^4-[(2R)-tetrahydrofuran-2-ylmethyl]-1H-imidazole-4,5-dicarboxamide] were, in that order, 50 nM, 23000 nM and 90 nM.
The like results for `COC(C)CNC(=O)c1nc[nH]c1C(=O)N[C@H]1CC[C@H](C(=O)Nc2ccc(F)cc2Cl)CC1` (stereo partly drawn) [Example 81, N^5-{trans-4-[(2-chloro-4-fluorophenyl)carbamoyl]cyclohexyl}-N^4-(2-methoxypropyl)-1H-imidazole-4,5-dicarboxamide] were, in that order, 72 nM, 6800 nM and 150 nM.
The like results for `COCC(C)NC(=O)c1nc[nH]c1C(=O)N[C@H]1CC[C@H](C(=O)Nc2ccc(F)cc2Cl)CC1` (stereo partly drawn) [Example 82, N^5-{trans-4-[(2-chloro-4-fluorophenyl)carbamoyl]cyclohexyl}-N^4-(1-methoxypropan-2-yl)-1H-imidazole-4,5-dicarboxamide] were, in that order, 250 nM, not below 50000 nM and 380 nM.
For the molecule `COC[C@H](C)NC(=O)c1nc[nH]c1C(=O)N[C@H]1CC[C@H](C(=O)Nc2ccc(F)cc2Cl)CC1` [Example 83, N^5-{trans-4-[(2-chloro-4-fluorophenyl)carbamoyl]cyclohexyl}-N^4-[(2S)-1-methoxypropan-2-yl]-1H-imidazole-4,5-dicarboxamide], the IC50 came out at 270 nM in assay [1], 29000 nM in assay [2] and 240 nM in assay [3].
Regarding `COC[C@@H](C)NC(=O)c1nc[nH]c1C(=O)N[C@H]1CC[C@H](C(=O)Nc2ccc(F)cc2Cl)CC1` [Example 84, N^5-{trans-4-[(2-chloro-4-fluorophenyl)carbamoyl]cyclohexyl}-N^4-[(2R)-1-methoxypropan-2-yl]-1H-imidazole-4,5-dicarboxamide], the IC50 is 230 nM in assay [1], not below 50000 nM in assay [2] and 230 nM in assay [3].
In the case of `COC(C)(C)CNC(=O)c1nc[nH]c1C(=O)N[C@H]1CC[C@H](C(=O)Nc2cc(F)c(F)cc2Cl)CC1` [Example 85, N^5-{trans-4-[(2-chloro-4,5-difluorophenyl)carbamoyl]cyclohexyl}-N^4-(2-methoxy-2-methylpropyl)-1H-imidazole-4,5-dicarboxamide], the IC50 in assay [1] is 23 nM; in assay [2], 24000 nM; in assay [3] it was 130 nM.
The like results for `O=C(NCC1CCCO1)c1nc[nH]c1C(=O)N[C@H]1CC[C@H](C(=O)Nc2cc(F)c(F)cc2Cl)CC1` (stereo partly drawn) [Example 86, N^5-{trans-4-[(2-chloro-4,5-difluorophenyl)carbamoyl]cyclohexyl}-N^4-(tetrahydrofuran-2-ylmethyl)-1H-imidazole-4,5-dicarboxamide] were, in that order, 22 nM, 14000 nM and 94 nM.
Consider `COCC(C)NC(=O)c1nc[nH]c1C(=O)N[C@H]1CC[C@H](C(=O)Nc2cc(F)c(F)cc2Cl)CC1` (stereo partly drawn) [Example 87, N^5-{trans-4-[(2-chloro-4,5-difluorophenyl)carbamoyl]cyclohexyl}-N^4-(1-methoxypropan-2-yl)-1H-imidazole-4,5-dicarboxamide], for which the IC50 in assay [1] is 51 nM; in assay [2], not below 50000 nM; in assay [3] it was 60 nM.
The like results for `CNC(=O)c1nc[nH]c1C(=O)N[C@H]1CC[C@H](C(=O)Nc2cc(N3CCOCC3)ccc2Cl)CC1` [Example 88, N^5-(trans-4-{[2-chloro-5-(morpholin-4-yl)phenyl]carbamoyl}cyclohexyl)-N^4-methyl-1H-imidazole-4,5-dicarboxamide] were, in that order, 7100 nM, not below 50000 nM and 2400 nM.
With `O=C(NCC1CCCO1)c1nc[nH]c1C(=O)N[C@H]1CC[C@H](C(=O)Nc2cc(N3CCOCC3)ccc2Cl)CC1` (stereo partly drawn) [Example 89, N^5-(trans-4-{[2-chloro-5-(morpholin-4-yl)phenyl]carbamoyl}cyclohexyl)-N^4-(tetrahydrofuran-2-ylmethyl)-1H-imidazole-4,5-dicarboxamide], the IC50 was found to be 1600 nM in assay [1], 24000 nM in assay [2] and 1200 nM in assay [3].
In the case of `COC(C)(C)CNC(=O)c1nc[nH]c1C(=O)N[C@H]1CC[C@H](C(=O)Nc2cc(N3CCOCC3)ccc2Cl)CC1` [Example 90, N^5-(trans-4-{[2-chloro-5-(morpholin-4-yl)phenyl]carbamoyl}cyclohexyl)-N^4-(2-methoxy-2-methylpropyl)-1H-imidazole-4,5-dicarboxamide], the IC50 worked out at 2700 nM in assay [1], 33000 nM in assay [2] and 1900 nM in assay [3].
`CC(C)(O)CNC(=O)c1nc[nH]c1C(=O)N[C@H]1CC[C@@]2(CCN(c3cccc(Cl)c3)C2=O)CC1` [Example 284, N^5-[(trans)-2-(3-chlorophenyl)-1-oxo-2-azaspiro[4.5]dec-8-yl]-N^4-(2-hydroxy-2-methylpropyl)-1H-imidazole-4,5-dicarboxamide]: the half-maximal inhibitory concentration (IC50) in assay [1] stood at 220 nM; in assay [2], 6800 nM; in assay [3], 100 nM.
On the same counts, the results for `COCC(C)NC(=O)c1nc[nH]c1C(=O)N[C@H]1CC[C@@]2(CCN(c3cccc(Cl)c3)C2=O)CC1` (stereo partly drawn) [Example 285, N^5-[(trans)-2-(3-chlorophenyl)-1-oxo-2-azaspiro[4.5]dec-8-yl]-N^4-(1-methoxypropan-2-yl)-1H-imidazole-4,5-dicarboxamide] are 380 nM, 16000 nM and 92 nM.
